Results from PubChem BioAssay (NCI).
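48-hour exposure; five concentrations; linearly interpolated endpoints. TGI: total growth inhibition.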

Assays:
Test in all cases: inhibition of tumour cell growth, NCI panel, 48 h
[1] = system: SNB-78 CNS
[2] = system: NCI-H23 lung
[3] = system: HL-60(TB) leukemia
[4] = system: DLD-1 colon
[5] = system: SNB-19 CNS
[6] = system: SW-620 colon
[7] = system: HCT-116 colon
[8] = system: MOLT-4 leukemia
[9] = system: LOX IMVI melanoma
[10] = system: OVCAR-4 ovarian
[11] = system: A498 renal
[12] = system: NCI-H460 lung
[13] = system: UACC-62 melanoma
[14] = system: SK-MEL-5 melanoma
[15] = system: HOP-18 NSCLC
[16] = system: SF-268 CNS
[17] = system: DMS 273 small cell lung
[18] = system: KM20L2 colon
[19] = system: M14 melanoma
[20] = system: HT29 colon
[21] = system: UO-31 renal
[22] = system: M19-MEL melanoma
[23] = system: KM12 colon
[24] = system: HCC-2998 colon
[25] = system: IGROV1 ovarian
[26] = system: CCRF-CEM leukemia
[27] = system: K-562 leukemia
[28] = system: SNB-75 CNS
[29] = system: LXFL 529 NSCLC
[30] = system: SN12C renal
[31] = system: NCI-H522 lung
[32] = system: ACHN renal
[33] = system: RPMI-8226 leukemia
[34] = system: SR leukemia
[35] = system: A549 NSCLC
[36] = system: SF-295 CNS
[37] = system: U251 CNS
[38] = system: XF 498 CNS
[39] = system: NCI-H226 lung
[40] = system: SK-MEL-2 melanoma
[41] = system: OVCAR-5 ovarian
[42] = system: OVCAR-3 ovarian
[43] = system: HOP-62 NSCLC
[44] = system: OVCAR-8 ovarian
[45] = system: HCT-15 colon
[46] = system: RXF 393 renal
[47] = system: 786-0 renal
[48] = system: UACC-257 melanoma
[49] = system: MALME-3M melanoma
[50] = system: DMS 114 small cell lung
[51] = system: CAKI-1 renal
[52] = system: COLO 205 colon
[53] = system: SK-OV-3 ovarian
[54] = system: SF-539 CNS
[55] = system: EKVX NSCLC
[56] = system: HOP-92 NSCLC
[57] = system: TK-10 renal
[58] = system: SK-MEL-28 melanoma

CC1(C)Cc2cc(C(=O)O)c3c(c2C1=O)COCC3
TGI [1]: > 100 µM
TGI [2]: > 100 µM
TGI [3]: > 100 µM
TGI [4]: > 100 µM
TGI [5]: > 100 µM
TGI [6]: > 100 µM
TGI [7]: > 100 µM
TGI [8]: > 100 µM
TGI [9]: > 100 µM
TGI [10]: > 100 µM
TGI [11]: > 100 µM
TGI [12]: > 100 µM
TGI [13]: > 100 µM
TGI [14]: > 100 µM
TGI [15]: > 100 µM
TGI [16]: > 100 µM
TGI [17]: > 100 µM
TGI [18]: > 100 µM
TGI [19]: > 100 µM
TGI [20]: > 100 µM
TGI [21]: > 100 µM
TGI [22]: > 100 µM
TGI [23]: > 100 µM
TGI [24]: > 100 µM
TGI [25]: > 100 µM
TGI [26]: > 100 µM
TGI [27]: > 100 µM
TGI [28]: > 100 µM
TGI [29]: > 100 µM
TGI [30]: > 100 µM
TGI [31]: > 100 µM
TGI [32]: > 100 µM
TGI [33]: > 100 µM
TGI [34]: > 100 µM
TGI [35]: > 100 µM
TGI [36]: > 100 µM
TGI [37]: > 100 µM
TGI [38]: > 100 µM
TGI [39]: > 100 µM
TGI [40]: > 100 µM
TGI [41]: > 100 µM
TGI [42]: > 100 µM
TGI [43]: > 100 µM
TGI [44]: > 100 µM
TGI [45]: > 100 µM
TGI [46]: > 100 µM
TGI [47]: > 100 µM
TGI [48]: > 100 µM
TGI [49]: > 100 µM
TGI [50]: > 100 µM
TGI [51]: > 100 µM
TGI [52]: > 100 µM
TGI [53]: > 100 µM
TGI [54]: > 100 µM
TGI [55]: > 100 µM

CCc1cccc(C(C)C)c1N1C(=O)C(=O)C(c2nc3ccccc3s2)C(=O)C1=O
TGI [1]: > 50 µM
TGI [2]: > 50 µM
TGI [3]: 30.9 µM
TGI [4]: > 50 µM
TGI [5]: > 50 µM
TGI [6]: > 50 µM
TGI [7]: > 50 µM
TGI [8]: 42.7 µM
TGI [9]: > 50 µM
TGI [10]: > 50 µM
TGI [11]: > 50 µM
TGI [12]: > 50 µM
TGI [13]: > 50 µM
TGI [14]: > 50 µM
TGI [15]: > 50 µM
TGI [16]: > 50 µM
TGI [17]: > 50 µM
TGI [18]: > 50 µM
TGI [19]: > 50 µM
TGI [20]: > 50 µM
TGI [21]: > 50 µM
TGI [22]: > 50 µM
TGI [23]: > 50 µM
TGI [24]: > 50 µM
TGI [25]: > 50 µM
TGI [26]: > 42.1 µM
TGI [27]: > 50 µM
TGI [28]: > 50 µM
TGI [56]: > 50 µM
TGI [29]: > 50 µM
TGI [57]: > 50 µM
TGI [30]: > 50 µM
TGI [31]: 48.6 µM
TGI [32]: > 50 µM
TGI [33]: > 50 µM
TGI [35]: > 50 µM
TGI [36]: > 50 µM
TGI [37]: > 50 µM
TGI [38]: > 50 µM
TGI [40]: > 50 µM
TGI [41]: > 50 µM
TGI [42]: > 43.1 µM
TGI [43]: > 50 µM
TGI [44]: > 50 µM
TGI [45]: > 50 µM
TGI [46]: > 50 µM
TGI [47]: > 50 µM
TGI [58]: > 50 µM
TGI [48]: > 50 µM
TGI [49]: > 45.3 µM
TGI [50]: > 50 µM
TGI [51]: > 50 µM
TGI [52]: > 50 µM
TGI [53]: > 50 µM
TGI [54]: > 50 µM
TGI [55]: > 50 µM
